# Paper PMC10974272, “Cytotoxic and Antiproliferative Activity of LASSBio-2208 and the Attempts to Determine Its Drug Metabolism and Pharmacokinetics In Vitro Profile” (Pharmaceuticals, 2024)
# Where two headings read alike, the source gives them in different places.
# Experiments:
# [1] = Non-specific microsome protein binding; format: in vitro ADME; conditions: rat, pH 7.4; liver microsomes 0.5 mg protein/mL, 37 °C, 60 min; read-out: Percentage of ƒu(mic) (unbound fraction in nonspecific microsomal binding)
# Method: Once such bonds are formed, the bound fraction would become incapable of being metabolized.
# Liver microsomes were diluted with PBS pH 7.4 to a concentration of 0.5 mg protein/mL and 3 µL at 1 mM of the working test compound and solutions were mixed with 357 µL of liver microsome suspension. After mixing, duplicate 200 µL aliquots were immediately removed, while another microtubule acted as the control sample (T 0 h), and were quenched with 400 µL of cold acetonitrile containing analytical internal standards. The other samples were incubated at 37 °C at 100 rpm, for 60 min with the same subsequent treatment.
# PAMPA—GIT = format: in vitro ADME; conditions: for Papp: PAMPA, read-out: Pe. Exp. GIT; for Classification GIT: by fraction absorbed
# Method: (§1) To obtain information on the permeability potential of LASSBio-2208 on cell membranes, this derivative was tested using the parallel artificial membrane permeability assay (PAMPA) that is used as an in vitro model of passive diffusion and transcellular permeation. In this model, the permeability across two artificial membranes is measured: brain lipid from pig extract in dodecane (called PAMPA—BBB) and L-α soy phosphatidylcholine in dodecane (called PAMPA—TGI).
# (§2) To perform the permeability assay we used a donor plate where the compounds (tests or controls) are diluted in a buffered medium, characterized by the presence of a synthetic membrane of polyvinylidene fluoride (PVDF) impregnated with a lipid solution, forming a barrier through which the compounds migrate through a diffusion process to the lower plate called the receptor.
# (§3) The lipid mixture that impregnates the filter has a different constitution for the permeability tests for the blood–brain barrier (brain lipid from pig extract in dodecane) and gastrointestinal tract (L-α soy phosphatidylcholine in dodecane). In the PAMPA—BBB and PAMPA—GIT assays, the optical density values obtained in the reading at each selected wavelength, for each of the compounds were analysed in comparison with the values of several controls. In the case of the BBB, these values were used to elaborate an equation and determine the permeability coefficient (Pe), using a previously elaborated spreadsheet, and, for the PAMPA—GIT, these values were used to determine the absorbed fraction (Fa%), both using the Excel program. The permeability result for PAMPA—GIT classifies the compounds according to the percentage of absorbed fraction (Fa%), as follows: high intestinal permeability (70–100%), medium permeability (30–69%) or low permeability (0–29%), and the samples were diluted from a stock solution of 10 mM. The PAMPA—BBB model classifies the compounds only as follows: permeable (CNS+) or non-permeable (CNS−) and the assays were made from a stock solution of 1 mg for each compound [25, 40, 41, 42].
# [2] = tested on: human leukaemia cell line (CCRF-CEM); design: method as in PMID 37259357; conditions: cited from earlier work
# MOLT-4 = experiment: SRB cell viability/antiproliferative assay, MOLT-4; conditions: Homo sapiens, MOLT-4, 48 h
# PAMPA—BBB = format: in vitro ADME; design: key to Classification BBB: permeable (CNS+); non-permeable (CNS−)
# Method: as §1, §2, §3
# [3] = tested on: human prostate cancer cell line (PC-3); experiment: MTT cell viability assay, PC-3; design: Emax: dose or concentration left out as unconfirmed
# Method: (§8) After the incubation time, the plate was centrifuged (Universal centrifuge 320R Hettich, Kirchlengern, Germany) at 440× g, 10 min and 4 °C, then 110 µL of supernatant was removed and 10 µL of MTT solution was added and left to incubate for 3.5 h in the oven at 37 °C and 5% CO2. […] The CC50 was calculated using the GraphPad Prism 9.0 program. Each sample was tested in triplicate in three independent experiments (N3) [32, 33].
# CCRF-CEM = experiment: SRB cell viability/antiproliferative assay, CCRF-CEM; conditions: Homo sapiens, 48 h
# [4] = tested on: human prostate cancer cell line (PC-3); design: method as in PMID 37259357; conditions: cited from earlier work
# [5] = tested on: T lymphoblast cell line (MOLT-4); experiment: MTT cell viability assay, MOLT-4; conditions: Homo sapiens
# Method: as §8
# [6] = tested on: breast cancer cell line (MCF-7); design: method as in PMID 37259357; conditions: cited from earlier work
# MCF-7 = experiment: SRB cell viability/antiproliferative assay, MCF-7; conditions: Homo sapiens, MCF7, 48 h
# [7] = tested on: T lymphoblast cell line (MOLT-4); design: method as in PMID 37259357; conditions: cited from earlier work
# PC-3 = experiment: SRB cell viability/antiproliferative assay, PC-3; conditions: for Emax: SRB 48 h, PC-3, maximum effect at maximum concentration used
# [8] = tested on: breast cancer cell line (MCF-7); experiment: MTT cell viability assay, MCF-7
# Method: as §8
# [9] = tested on: human leukaemia cell line (CCRF-CEM); experiment: MTT cell viability assay, CCRF-CEM
# Method: as §8
# [10] = tested on: human peripheral blood mononuclear cells (hPBMC); experiment: PBMC viability assay by MTT; format: cell-based; conditions: MTT 48 h, human PBMC; maximum cytotoxic response at 100 µM
# Method: (§4) The SI indicates how selective a compound is for a tumour cell line compared with a non-tumour cell line.
# (§5) Human peripheral blood mononuclear cells (PBMCs) were used to determine the selectivity index (SI) and were obtained from healthy volunteers under a protocol approved by the Ethics Committee CAAE: 38257914.7.0000.5259. Immortalized cells were also obtained from the Rio de Janeiro Cell Bank (BCRJ).
# (§6) First, 8 mL of blood from each healthy donor (3 people) was collected in a tube with EDTA in a 1:20 ratio to prevent the blood from clotting. In a 15 mL Falcon tube containing 4 mL of Ficoll-Paque, the 8 mL of blood collected was slowly added, letting it fall down the walls of the tube. It was centrifuged (Universal Centrifuge 320R Hettich) for 40 min at 750× g at 21 °C with acceleration 1 and brake 0. After centrifugation, in order to extract the ring of mononuclear cells, the supernatant above it was first carefully discarded so as not to disturb the ring. The ring was then slowly removed and placed in another 15 mL Falcon tube to which pure RPMI-1640 medium was added in a 1:1 ratio and centrifuged for 10 min at 580× g and 21 °C with acceleration 8 and brake 9 [34, 35].
# (§7) The supernatant was discarded, and the pellet was resuspended in 1 mL of RPMI-1640 medium supplemented with 10% SBF and 1% antibiotic. An amount of 20 µL of cells were taken from the mixture and added to 380 µL of trypan blue dye for counting in the Neubauer chamber. Considering that 80% of PBMCs are lymphocytes and the rest are monocytes, the cells were plated with the aim of having 10^5 cell/well.
# [11] = PBMC viability assay by MTT; format: cell-based, human; conditions: MTT 48 h, non-tumour human PBMC
# Method: as §4, §5, §6, §7
smiles,measurement,setting,value
"CN(C)C1CCN(C(=O)c2ccc(NC(=O)Nc3ccc(-c4nc(N5CCOCC5)nc(N5CCOCC5)n4)cc3)cc2)CC1 [Gedatolisib, gedatolisib]","fraction unbound at 60 min, 8.3 µM",[1],0.503
same,Fraction Absorbed,PAMPA—GIT,48.4%
same,Papp,PAMPA—GIT,1.74 ×10⁻⁶ cm/s
same,CC50,[2],0.03 µM
same,CC50,MOLT-4,3.68 µM
same,Emax,MOLT-4,69.2%
same,Classification BBB,PAMPA—BBB,Insoluble
same,Pe. Exp. BBB,PAMPA—BBB,Insoluble
same,Pe. Exp. BBB,PAMPA—BBB; listed as gedatolisib,insoluble
same,CC50,"[3]; Homo sapiens, 24 h",> 100 µM
same,Emax,"[3]; Homo sapiens, 24 h",48%
same,CC50,"[3]; Homo sapiens, 48 h",5.05 µM
same,Emax,"[3]; Homo sapiens, 48 h",60.5%
same,CC50,"[3]; Homo sapiens, 72 h",0.86 µM
same,Emax,"[3]; Homo sapiens, 72 h",81.1%
same,CC50,CCRF-CEM,0.78 µM
same,Emax,CCRF-CEM,66.2%
same,CC50,[4],0.54 µM
same,CC50,"[5]; MOLT-4, 24 h",0.35 µM
same,Emax,"[5]; MOLT-4, 24 h",97.2%
same,CC50,"[5]; MOLT-4, 48 h",0.08 µM
same,Emax,"[5]; MOLT-4, 48 h",99.3%
same,CC50,"[5]; MOLT-4, 72 h",0.07 µM
same,CC50,[6],0.07 µM
same,CC50,MCF-7,0.03 µM
same,Emax,MCF-7,95.7%
same,CC50,[7],0.02 µM
same,CC50,"PC-3; Homo sapiens, PC-3, 48 h",6.16 µM
same,Emax,"PC-3; Homo sapiens, PC-3, 48 h",> 50%
same,CC50,"[8]; Homo sapiens, MCF7, 24 h",5.04 µM
same,Emax,"[8]; Homo sapiens, MCF7, 24 h",79.9%
same,CC50,"[8]; Homo sapiens, MCF7, 48 h",0.21 µM
same,Emax,"[8]; Homo sapiens, MCF7, 48 h",96.8%
same,CC50,"[8]; Homo sapiens, MCF7, 72 h",0.06 µM
same,CC50,[9]; 24 h,0.31 µM
same,Emax,[9]; 24 h,98.6%
same,CC50,[9]; 48 h,0.085 µM
same,Emax,[9]; 48 h,99.5%
same,CC50,[9]; 72 h,0.09 µM
same,Emax,[9]; 72 h,100%
"CN1CCc2c(c3ccccc3n2Cc2ccc(C(=O)NO)cc2)C1 [Tubastatin A, tubastatin A]","fraction unbound at 60 min, 8.3 µM",[1],0.131
same,Fraction Absorbed,PAMPA—GIT,52.93%
same,Papp,PAMPA—GIT,1.98 ×10⁻⁶ cm/s
same,Classification GIT,PAMPA—GIT,Medium (medium permeability (30–69%))
same,Classification GIT,PAMPA—GIT; listed as tubastatin A,medium
same,Fraction Absorbed,PAMPA—GIT; listed as tubastatin A,52.9%
same,CC50,MOLT-4,10.5 µM
same,Emax,MOLT-4,54.4%
same,Classification BBB,PAMPA—BBB,CNS+
same,Papp,PAMPA—BBB; read-out: Pe. Exp. BBB,5.54 ×10⁻⁶ cm/s
same,CC50,"[3]; Homo sapiens, 24 h",> 100 µM
same,Emax,"[3]; Homo sapiens, 24 h",41.8%
same,CC50,"[3]; Homo sapiens, 48 h",65.9 µM
same,Emax,"[3]; Homo sapiens, 48 h",67.8%
same,CC50,"[3]; Homo sapiens, 72 h",34.9 µM
same,Emax,"[3]; Homo sapiens, 72 h",83.6%
same,CC50,"[3]; MTT 24 h, PC-3",did not show any cytotoxic activity
same,CC50,CCRF-CEM,9.69 µM
same,Emax,CCRF-CEM,69.5%
same,Emax,"[5]; MOLT-4, 24 h",94.6%
same,CC50,"[5]; MOLT-4, 48 h",7.5 µM
same,Emax,"[5]; MOLT-4, 48 h",98.2%
same,Emax,"[5]; MOLT-4, 72 h",98.7%
same,CC50,MCF-7,66 µM
same,Emax,"MCF-7; SRB 48 h, MCF-7, maximum effect at maximum concentration used",> 70%
same,CC50,"PC-3; Homo sapiens, PC-3, 48 h",> 100 µM
same,Emax,"PC-3; Homo sapiens, PC-3, 48 h",< 35%
same,Emax,PC-3,39.3%
same,Emax,[10],58.2%
same,CC50 at 48 h,[11],85.7 µM
same,CC50,"[8]; Homo sapiens, MCF7, 24 h",> 100 µM
same,Emax,"[8]; Homo sapiens, MCF7, 24 h",40.1%
same,CC50,"[8]; Homo sapiens, MCF7, 48 h",> 100 µM
same,Emax,"[8]; Homo sapiens, MCF7, 48 h",48.2%
same,CC50,"[8]; Homo sapiens, MCF7, 72 h",83.6 µM
same,Emax,"[8]; Homo sapiens, MCF7, 72 h",56.8%
same,CC50,"[8]; MTT 24 h, MCF-7",did not show any cytotoxic activity
same,CC50,[9]; 24 h,12.5 µM
same,Emax,[9]; 24 h,95.8%
same,CC50,[9]; 48 h,9.38 µM
same,Emax,[9]; 48 h,99.1%
same,CC50,[9]; 72 h,7.11 µM
same,Emax,[9]; 72 h,99.3%
